Reference: article PMC7156458, “Synthetic biology based construction of biological activity-related library of fungal decalin-containing diterpenoid pyrones” (Nature Communications, 2020)
Where two headings read alike, the source gives them in different places.

What was measured:
[1] = system: MCF-7 cells; assay: cell cytotoxic effects against MCF-7 cells (72 h), A490; format: cell-based, human; conditions: MCF-7, 72 h
[2] = cytotoxicity in Drosophila DL1 cells; format: cell-based; conditions: Drosophila, DL1 cells (embryonic macrophage-derived), DL1 cells
Procedure: (§1) We screened the DDPs on the Drosophila assay system for cytotoxicity, inhibitory activity of innate immune signalling and insecticidal activity. The cytotoxicity of the DDPs was evaluated using two cell lines, embryonic macrophage-derived DL1 cells[58]–[60] and larval blood cell-derived l(2)mbn cells, and their IC50 values are listed in Supplementary Table 23.

[3] = system: DL1 cells; assay: cytotoxicity in Drosophila DL1 cells; format: cell-based; conditions: DL1 cells; for IC50: Drosophila melanogaster, cytotoxicity
Procedure: as §1

[4] = cytotoxicity in Drosophila l(2)mbn cells; format: cell-based; conditions: Drosophila, l(2)mbn cells (larval blood cell-derived)
Procedure: as §1

[5] = system: l(2)mbn cells; assay: cytotoxicity in Drosophila l(2)mbn cells; format: cell-based; conditions: for Luminescence Raw1: replicate 1; for Luminescence Raw2: replicate 2; for IC50: Drosophila melanogaster, cytotoxicity
Procedure: as §1

[6] = system: human immunodeficiency virus-1 (HIV-1); assay: anti-HIV MAGI assay; format: cell-based; conditions: Human immunodeficiency virus 1, MAGI, anti-HIV
Text: We examined the inhibitory activities of DDPs against various species of bacteria (both gram-negative and gram-positive bacteria), fungi and viruses. […] In contrast, preliminary screening of the DDPs for anti-viral agents with hepatitis B virus (HBV), measles virus (MV), Epstein-Barr virus (EBV), herpes simplex virus (HSV) and human immunodeficiency virus-1 (HIV-1) indicated their selective inhibition of HIV.

[7] = system: MAGI cells; assay: cytotoxicity in the anti-HIV assay (CC50); format: cell-based; conditions: single determinations
[8] = replicate 1, relative to DMSO 1%, read-out: % viability, viability 1
[9] = replicate 2, relative to DMSO 1%, read-out: % viability, viability 2
[10] = average of two replicates, read-out: IC50 Average
[11] = replicate 1, read-out: IC50 (1)
[12] = replicate 2, read-out: IC50 (2)

With C=C1CC[C@@H]2[C@](C)(CC[C@H]3O[C@H](C=C(C)C)C[C@@]23C)[C@@H]1Cc1c(O)c(C)c(C)oc1=O [Compound 10, higginsianin A] the viability at 0.1 µM ([1]; Homo sapiens, MCF7, 72 h, 0.1 µM (DMSO 0.002%), read-out: A490 (control =1) ave) was 62.9%, the viability at 1 µM ([1]; Homo sapiens, MCF7, 72 h, 1 µM (DMSO 0.02%), read-out: A490 (control =1) ave) was 94.3% and the viability at 10 µM ([1]; Homo sapiens, MCF7, 72 h, 10 µM (DMSO 0.2%), read-out: A490 (control =1) ave) was 17.9%. For the same compound, the A490 ave ([1]; 0.1 µM (DMSO 0.002%), control 1.064) was 0.669, the A490 ave ([1]; 1 µM (DMSO 0.02%), control 1.104) was 1.042 and the A490 ave ([1]; 10 µM (DMSO 0.2%), control 1.049) was 0.188. It also gave a viability at 0.04 µM [2, 8] of 82.7%, a viability at 0.04 µM [2, 9] of 85.6% and a viability at 0.2 µM [2, 8] of 36.2%. It also gave a viability at 0.2 µM [2, 9] of 35%, a viability at 1 µM [2, 8] of 7.23% and a viability at 1 µM [2, 9] of 6.51%. The viability at 4 µM [2, 8] was 4.76%, the viability at 4 µM [2, 9] was 6.46% and the viability at 10 µM [2, 8] was 7.6%. The viability at 10 µM [2, 9] was 6.95%, the viability at 20 µM [2, 8] was 5.78% and the viability at 20 µM [2, 9] was 5.81%. The “Luminescence Raw1” value ([3]; 0.04 µM, replicate 1) was 1703467, the “Luminescence Raw2” value ([3]; 0.04 µM, replicate 2) was 1762974 and the “Luminescence Raw1” value ([3]; 0.2 µM, replicate 1) was 745666. For the same compound, the “Luminescence Raw2” value ([3]; 0.2 µM, replicate 2) was 721146, the “Luminescence Raw1” value ([3]; 1 µM, replicate 1) was 148910 and the “Luminescence Raw2” value ([3]; 1 µM, replicate 2) was 134127. The “Luminescence Raw1” value ([3]; 4 µM, replicate 1) was 98071, the “Luminescence Raw2” value ([3]; 4 µM, replicate 2) was 133046 and the “Luminescence Raw1” value ([3]; 10 µM, replicate 1) was 156482. The “Luminescence Raw2” value ([3]; 10 µM, replicate 2) was 143141, the “Luminescence Raw1” value ([3]; 20 µM, replicate 1) was 118984 and the “Luminescence Raw2” value ([3]; 20 µM, replicate 2) was 119705. For the same compound, the IC50 [3, 10] was 133 nM, the IC50 ([3]; average±SEM, read-out: IC50) was 130 ± 10 nM and the IC50 [3, 11] was 132 nM. For the same compound, the IC50 [3, 12] was 133 nM, the viability at 0.04 µM [4, 8] was 113% and the viability at 0.04 µM [4, 9] was 127%. It also gave a viability at 0.2 µM [4, 8] of 108%, a viability at 0.2 µM [4, 9] of 125% and a viability at 1 µM [4, 8] of 20.3%. For the same compound, the viability at 1 µM [4, 9] was 41.9%, the viability at 4 µM [4, 8] was 7.39% and the viability at 4 µM [4, 9] was 9.05%. For the same compound, the viability at 10 µM [4, 8] was 6.87%, the viability at 10 µM [4, 9] was 7.85% and the viability at 20 µM [4, 8] was 5.83%. The viability at 20 µM [4, 9] was 6.46%, the “Luminescence Raw1” value ([5]; 0.04 µM) was 2899849 and the “Luminescence Raw2” value ([5]; 0.04 µM) was 3256235. The “Luminescence Raw1” value ([5]; 0.2 µM) was 2762422, the “Luminescence Raw2” value ([5]; 0.2 µM) was 3200684 and the “Luminescence Raw1” value ([5]; 1 µM) was 521407. For the same compound, the “Luminescence Raw2” value ([5]; 1 µM) was 1075282, the “Luminescence Raw1” value ([5]; 4 µM) was 189680 and the “Luminescence Raw2” value ([5]; 4 µM) was 232227. The “Luminescence Raw1” value ([5]; 10 µM) was 176340, the “Luminescence Raw2” value ([5]; 10 µM) was 201579 and the “Luminescence Raw1” value ([5]; 20 µM) was 149658. The “Luminescence Raw2” value ([5]; 20 µM) was 165883, the IC50 [5, 10] was 630 nM and the IC50 ([5]; average±SEM, read-out: IC50) was 630 ± 100 nM. The IC50 [5, 11] was 529 nM, the IC50 [5, 12] was 734 nM and the EC50 ([6]; MAGI assay, read-out: EC50) was under 200 nM. The EC50 ([6]; average of numeric determinations, read-out: Avg. EC50) was 53.2 nM and the Cytotoxicity [7] was over 10 µM.
